Test results as given in PubChem BioAssay AID1159565 (GlaxoSmithKline (GSK), 2015).
Calls of active or inactive are those of the source. The rule behind the calls is not given here.

Test system: T. cruzi-infected H9C2 cardiomyocytes, high-content imaging
Assay: anti-T. cruzi activity in infected cardiomyocytes – imaging, H9C2 host cardiomyocytes, host toxicity (AID 1159565);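 note: infected cells incubated 72 h after plating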
[1] = measured here: H9C2 host cell toxicity
[2] = measured here: amastigotes per cell

Row | Compound | IC50 | IC50 [1] [µM] | IC50 [2] [µM]
1 | CC(C)(C)C(Cn1ccnc1)NC(=O)c1ccc2nc(C3CC3)oc2c1 (stereo not drawn) | 0.1 µM | > 50 | 0.079
2 | Cc1cc(C)n(-c2nc(NC(C)(C)C)nc(N3CCOCC3)n2)n1 | 10 µM | 1.3 | 3.2
3 | O=S(=O)(c1ccccc1C(F)(F)F)N1CCN(Cc2ccc(-n3ccnc3)cc2)CC1 | 0.25 µM | > 50 | 0.2
4 | COc1ccc(C(=O)[C@H]2C[C@@H]2CN(Cc2ccccn2)Cc2ccccn2)cc1 | 1.6 µM | 25 | 1
5 | CC(C)C[C@H](NC(=O)c1csc(-c2cccs2)n1)C(=O)NC1(C#N)CC1 | > 50 µM (inactive) | > 50 | 20
6 | CC1(Oc2cncc(Cl)c2)CCN(Cc2cc3ccccc3[nH]2)C1 (stereo not drawn) | 1.6 µM | 10 | 1
7 | O=C(Nc1nccs1)c1ccccc1Cn1cc([N+](=O)[O-])cn1 | > 50 µM (inactive) | > 50 | > 50
8 | CCCc1nc2nc(N)nc(N)c2cc1CC | 0.32 µM | 13 | 0.079
9 | COc1ccc(C(=O)Nc2ccc(NC(=O)CO)cc2)cc1 | > 50 µM (inactive) | > 50 | > 50
10 | CC(C)Oc1ccc(C(=O)Nc2ccc(N3CCOCC3)c(Cl)c2)cc1 | 1.3 µM | > 50 | 1.3
11 | COc1ccc2ncc(=O)n(CCN3CCC(NCc4ccc(-c5cccs5)cc4)CC3)c2n1 | 1.6 µM | 7.9 | 0.16
12 | Fc1ccc(OC2CC(NCc3cccc4cn[nH]c34)C2)cc1C(F)(F)F (stereo not drawn) | 0.2 µM | 7.9 | 0.16
13 | Cc1nc(-c2ccc3c(c2)OCO3)sc1C(=O)NCc1ccc2c(c1)OCO2 | 0.79 µM | > 50 | 0.5
14 | O=C(NCCc1ccccn1)C(c1cn[nH]c1)N1CCN(c2ccc(Cl)c(Cl)c2)CC1 (stereo not drawn) | 0.16 µM | > 50 | 0.13
15 | Cc1cc(Br)cc(C(=O)c2c(C(C)C)c(=O)[nH]c(=O)n2Cc2ccnc(N)c2)c1 | 0.32 µM | > 50 | 0.25
16 | Cn1nc([N+](=O)[O-])nc1N1CCCCC1 | 13 µM | > 50 | 1
17 | CCN(CC)S(=O)(=O)c1ccc(Cn2nc(C(=O)Nc3ccncn3)c3ccccc32)cc1 | 0.4 µM | 25 | 0.4
18 | O=c1cc(NCCCNC2CCOc3c(I)cc(Cl)cc32)[nH]c2ccccc12 (stereo not drawn) | 0.32 µM | 25 | 0.16

Row | Compound | IC50 | IC50 [1] [µM] | IC50 [2] [µM]
19 | CC(C)(C)c1csc(NC(=O)c2ccc([N+](=O)[O-])s2)n1 | 0.32 µM | 13 | 0.2
20 | CCN(Cc1ccncc1)Cc1ccc(NC(=O)c2cc(-c3ccc(F)cc3)n[nH]2)cc1 | 0.25 µM | > 50 | 0.25
21 | CCCc1cc(C(=O)Nc2ncc(-c3cccc(Br)c3)n2C)n[nH]1 | 4 µM | > 50 | 2.5
22 | Cc1ccc2nc(N(Cc3cccnc3)C(=O)CCc3ccccc3)sc2c1 | 0.04 µM | > 50 | 0.032
23 | O=C(NCCNc1noc(-c2ccc([N+](=O)[O-])cc2)n1)c1ccc(Cl)cc1 | > 50 µM (inactive) | > 50 | 1.3
24 | COc1ccc(-c2cnc(C)o2)cc1S(=O)(=O)Nc1ccc(C)cc1C | 3.2 µM | > 50 | 3.2
25 | O=C(CCCn1cnc([N+](=O)[O-])n1)Nc1cccc(Cl)c1 | 0.5 µM | > 50 | 0.16
26 | O=C(COc1ncnc2cc([N+](=O)[O-])ccc12)NC(=O)NC1CCCCC1 | 1 µM | > 50 | 0.5
27 | O=C(N[C@H](CO)c1ccccc1)c1ccc(-c2c[nH]c3nccc(C(F)(F)F)c23)s1 | 10 µM | 13 | 10
28 | O=C(NC(CO)c1ccc(F)cc1)c1ccc(-c2c[nH]c3ncccc23)s1 (stereo not drawn) | 16 µM | 4 | 13
29 | CC(C)(C)Nc1nc(Nc2ccc3c(c2)CS(=O)(=O)C3)nc2[nH]ccc12 | 32 µM | 1 | 20
30 | CC(C)(C)C(=O)NCCc1csc(-c2ccc(F)cc2)n1 | 3.2 µM | > 50 | 2.5
31 | Cc1[nH]nc(Nc2ccnc3[nH]ccc23)c1C | > 50 µM (inactive) | > 50 | > 50
32 | Cc1cc(NC(=O)C2CC2)ccc1OC1CCN(Cc2ccco2)CC1 | 40 µM | 40 | 20
33 | O=C(Cc1ccc2c(c1)CCC2)Nc1n[nH]c(-c2ccccn2)n1 | 10 µM | > 50 | 10
34 | CNc1cc(Cn2c(C(=O)c3cc(C)cc(Cl)c3)c(C(C)C)c(=O)[nH]c2=O)ccn1 | 0.02 µM | > 50 | 0.02
35 | COc1cccc(-c2c(C)nn(-c3nc(N)nc(-c4ccccn4)n3)c2N)c1 | 2 µM | > 50 | 0.5
36 | Cc1nc(C(=O)Nc2ccc3c(c2)OCO3)nn1-c1ccc(F)cc1 | 1.3 µM | > 50 | 1
